From patent publication USRE42890E1, “Furazanobenzimidazoles” (Basilea Pharmaceutica AG, priority 2003, dated 2011)
pIC50: −log10 of the molar value.

Key:
MRC5 = experiment: MTS proliferation assay, MRC5; type: cell-based; conditions: MRC5, 72 h incubation; read-out: MTS proliferation assay IC 50 MRC5
Method in brief: (§1)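 Cells in RPMI-1640 with 5% or 10% FCS, 2-mercaptoethanol and glutamine were seeded 24 h before treatment with compound at final 10, 3, 1 and 0.3 μM. After 72 h at 37° C and 7.5% CO2, MTS reagent was added for 3 h and absorbance read at 492 nm.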

Jurkat [1] = experiment: MTS proliferation assay, Jurkat; type: cell-based, human; conditions: 72 h incubation, read-out: MTS proliferation assay IC 50 Jurkat
Method in brief: (§2)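 Cells were seeded 24 h before treatment and exposed to compound at 10, 3, 1 and 0.3 μM final for 72 h at 37 °C, 7.5% CO2 in RPMI-1640 with 5% or 10% FCS. Viability was read by MTS reagent (3 h) as absorbance at 492 nm.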

HeLa [2] = experiment: PI staining for cell cycle distribution, HeLa; type: cell-based, human; set-up: key: 0: no effect; 1: weak effect; 2: strong effect; conditions: HeLa 10 μM, 24 h
Method: (§3) Cell lines are cultured in RPMI-1640 tissue culture medium containing either 5% or 10% fetal calf serum, 0.05 mM 2-mercaptoethanol, 2 mM glutamine and penicillin/streptomycin 50 μg/ml (complete medium) (Sigma, Buchs, Switzerland). General growth conditions are 37° C. and 7.5% CO2.
(§4) The following human cell lines (either EGFP transfected or not) are being used: HeLa (ATCC: CCL-2), KB (ATCC: CCL-17), MCF7 (ATCC: HTB-22), SK-BR-3 (ATCC: HTB-30), SK-Mel 1 (ATCC: HTB-67), SK-Mel 28 (ATCC: HTB-72), PC-3 (ATCC: CRL-1435), SW 480 (ATCC: CCL-228), NCl-H460 (ATCC: HTB-177), NCl-H1792 (ATCC: CRL-5895), HT1080 (ATCC: CCL-21), Jurkat (ATCC: TIB-152), Ramos (ATCC: CRL-1596), Raji (ATCC: CCL-86), H9 (ATCC: HTB-176), Hut78 (ATCC: TIB-161), K562 (ATCC: CCL 243), HL-60 (ATCC: CCL 240), U-87MG (ATCC: HTB-14), HepG2 (ATCC: HB-8065), U-2 OS (ATCC: HTB-96), Saos-2 (ATCC: HTB-85), U937 (ATCC: CRL 1593), Hs 578T (ATCC: HTB 126), HBL-100 (ATCC: HTB 124), Molt-4 (ATCC: CRL 1582).
(§5) 1-2*10^5 cells are seeded into 24 well tissue culture plates and incubated for 24 h prior to compound addition. Compounds are added for 24 h in a final concentration of 3 μM or 10 μM. Adherent cells are harvested by trypsinization. The cell suspensions are fixed by adding 2 parts ice cold ethanol 100% while vortexing. Then the samples are stored for >2 h at −20° C. Subsequently the cells are washed with PBS once and resuspended in 250 μl PBS containing 50 μg/ml PI (Calbiochem # 537059), then the samples are incubated at 37° C. for 30 minutes and subsequently analyzed on a FACSCalibur™ monitoring linear PI fluorescence activity on FL2. The readout allows the detection of a possible direct or indirect influence of the tested compounds on the cell cycle. The following events can occur: a) Generation of a subG1 peak indicative for DNA fragmentation, b) increase of the cell population arrested in G2M phase. Both events are scored by 1 for weak and 2 for strong occurrence. 0 indicates no occurrence at all.

Jily = experiment: MTS proliferation assay, Jily; type: cell-based; conditions: 72 h incubation, read-out: MTS proliferation assay IC 50 Jily
Method in brief: as §1

[3] = tested on: adherent cells or suspension cells; experiment: Hoechst 33342 nuclear staining (fraction of apoptotic nuclei); type: cell-based; set-up: key: 0 relating to no activity; 1 relating to weak activity comprising less than 70% of the cells; score 2 relating to strong activity comprising more than 70% of the cells
HeLa [4] = experiment: MTS proliferation assay, HeLa; type: cell-based, human; conditions: 72 h incubation, read-out: MTS proliferation assay IC 50 HeLa
Method in brief: as §2

HT1080 = experiment: MTS proliferation assay, HT1080; type: cell-based, human; conditions: HT1080, 72 h incubation; read-out: MTS proliferation assay IC 50 HT1080
Method in brief: as §2

Jurkat [5] = experiment: PI staining for cell cycle distribution, Jurkat; type: cell-based, human; set-up: key: 0: no effect; 1: weak effect; 2: strong effect; conditions: Jurkat 3 μM, 24 h
Method: as §3, §4, §5

[6] = cell population arrested in G2M phase
[7] = subG1 peak indicative for DNA fragmentation

With `N#CCCNc1nonc1-c1nc2ccccc2n1CC(=O)c1ccc(N)cc1` [Example 58] the pIC50 (MRC5) was > 8.00, the pIC50 (Jurkat [1]) was > 8.00 and the “PI staining for cell cycle distribution, G2M” value (HeLa [2]; [6]) was 2. The “PI staining for cell cycle distribution, subG1” value (HeLa [2]; [7]) was 0, the pIC50 (Jily) was > 8.00 and the “Hoechst 33342 nuclear staining score” value ([3]; H460, conc 0.01 μm) was 2 (score 2 relating to strong activity comprising more than 70% of the cells). For the same compound, the “Hoechst 33342 nuclear staining score” value ([3]; H460, conc 0.1 μm) was 2 (score 2 relating to strong activity comprising more than 70% of the cells), the “Hoechst 33342 nuclear staining score” value ([3]; H460, conc 1 μm) was 2 (score 2 relating to strong activity comprising more than 70% of the cells) and the “Hoechst 33342 nuclear staining score” value ([3]; HeLa, conc 0.01 μm) was 2 (score 2 relating to strong activity comprising more than 70% of the cells). For the same compound, the “Hoechst 33342 nuclear staining score” value ([3]; HeLa, conc 0.1 μm) was 2 (score 2 relating to strong activity comprising more than 70% of the cells), the “Hoechst 33342 nuclear staining score” value ([3]; HeLa, conc 1 μm) was 2 (score 2 relating to strong activity comprising more than 70% of the cells) and the “Hoechst 33342 nuclear staining score” value ([3]; Jily, conc 0.01 μm) was 2 (score 2 relating to strong activity comprising more than 70% of the cells). For the same compound, the “Hoechst 33342 nuclear staining score” value ([3]; Jily, conc 0.1 μm) was 2 (score 2 relating to strong activity comprising more than 70% of the cells), the “Hoechst 33342 nuclear staining score” value ([3]; Jily, conc 1 μm) was 2 (score 2 relating to strong activity comprising more than 70% of the cells) and the “Hoechst 33342 nuclear staining score” value ([3]; Jurkat, conc 0.01 μm) was 2 (score 2 relating to strong activity comprising more than 70% of the cells). The “Hoechst 33342 nuclear staining score” value ([3]; Jurkat, conc 0.1 μm) was 2 (score 2 relating to strong activity comprising more than 70% of the cells), the “Hoechst 33342 nuclear staining score” value ([3]; Jurkat, conc 1 μm) was 2 (score 2 relating to strong activity comprising more than 70% of the cells) and the “Hoechst 33342 nuclear staining score” value ([3]; MRC5, conc 0.01 μm) was 1 (1 relating to weak activity comprising less than 70% of the cells). For the same compound, the “Hoechst 33342 nuclear staining score” value ([3]; MRC5, conc 0.1 μm) was 2 (score 2 relating to strong activity comprising more than 70% of the cells), the “Hoechst 33342 nuclear staining score” value ([3]; MRC5, conc 1 μm) was 2 (score 2 relating to strong activity comprising more than 70% of the cells) and the “Hoechst 33342 nuclear staining score” value ([3]; PBLs, conc 0.01 μm) was 0. The “Hoechst 33342 nuclear staining score” value ([3]; PBLs, conc 0.1 μm) was 0, the “Hoechst 33342 nuclear staining score” value ([3]; PBLs, conc 1 μm) was 0 and the pIC50 (HeLa [4]) was 7.00 to 8.00. For the same compound, the pIC50 (HT1080) was > 8.00, the “PI staining for cell cycle distribution, G2M” value (Jurkat [5]; [6]) was 0 and the “PI staining for cell cycle distribution, subG1” value (Jurkat [5]; [7]) was 0.
